From ChEMBL document CHEMBL4311936, “Synthesis and structure-activity relationship studies of IgG-binding peptides focused on the C-terminal histidine residue” (Medchemcomm, 2019)
Bridge positions count the residues as written; N and C are the ends. Peptide text beside a SMILES is read from it.

Assays:
Homo sapiens = species on record: Homo sapiens; assay: Binding affinity to IgG (unknown origin) assessed as association rate constant
[1] = Binding affinity to IgG (unknown origin) assessed as dissociation constant; parameters: species or system Homo sapiens

Ka (Homo sapiens)	Kd [1]	Structure (SMILES)
1.47e+06 M⁻¹ s⁻¹		CC(=O)N[C@@H](CC(=O)O)C(=O)N[C@H]1CSSC[C@@H](C(=O)N[C@H](C(=O)N[C@@H](Cc2ccccc2)C(=O)N[C@@H](Cc2cnc[nH]2)C(N)=O)[C@@H](C)O)NC(=O)[C@H](Cc2c[nH]c3ccccc23)NC(=O)[C@H](C(C)C)NC(=O)[C@H](CC(C)C)NC(=O)[C@H](CCC(=O)O)NC(=O)CNC(=O)[C@H](CC(C)C)NC(=O)[C@H](Cc2cnc[nH]2)NC(=O)[C@H](Cc2ccc(O)cc2)NC(=O)[C@H](C)NC1=O (Ac-DCAYHLGELVWCTFH-NH2; disulfide 2-12)
	2.45 nM	CC(C)C[C@@H]1NC(=O)[C@H](Cc2cnc[nH]2)NC(=O)[C@H](Cc2c[nH]c3ccccc23)NC(=O)[C@H](C)NC(=O)[C@@H]2CSSC[C@H](NC(=O)[C@H](Cc3c[nH]c4ccccc34)NC(=O)[C@H](C(C)C)NC(=O)[C@H](CC(C)C)NC(=O)[C@H](CCC(=O)O)NC(=O)CNC1=O)C(=O)N[C@@H]([C@@H](C)O)C(=O)N[C@H](C(=O)O)CSSC[C@H](N)C(=O)N[C@@H](CC(=O)O)C(=O)N2
	2.2 nM	CC(C)C[C@@H]1NC(=O)[C@H](Cc2cnc[nH]2)NC(=O)[C@H](Cc2c[nH]c3ccccc23)NC(=O)[C@H](C)NC(=O)[C@@H](NC(=O)[C@H](CC(=O)O)NC(=O)[C@@H]2CCCN2)CSSC[C@@H](C(=O)N[C@H](C(=O)N2CCC[C@@H]2C(N)=O)[C@@H](C)O)NC(=O)[C@H](Cc2c[nH]c3ccccc23)NC(=O)[C@H](C(C)C)NC(=O)[C@H](CC(C)C)NC(=O)[C@H](CCC(=O)O)NC(=O)CNC1=O
741000 M⁻¹ s⁻¹		CC(=O)N[C@@H](CC(=O)O)C(=O)N[C@H]1CSSC[C@@H](C(=O)N[C@H](C(=O)N[C@@H](Cc2ccccc2)C(=O)N[C@@H](Cc2cnc[nH]2)C(N)=O)[C@@H](C)O)NC(=O)[C@H](Cc2c[nH]c3ccccc23)NC(=O)[C@H](C(C)C)NC(=O)[C@H](CC(C)C)NC(=O)[C@H](CCC(=O)O)NC(=O)CNC(=O)[C@H](CCCCN)NC(=O)[C@H](Cc2cnc[nH]2)NC(=O)[C@H](Cc2ccc(O)cc2)NC(=O)[C@H](C)NC1=O (Ac-DCAYHKGELVWCTFH-NH2; disulfide 2-12)
